For the experiment, the system named is NLRP3. Put plainly: IL-1β secretion assay in PMA-differentiated, LPS/nigericin-stimulated THP-1 cells (384-well, ELISA read-out). To be noted: Homo sapiens. The class given is cell-based, human. The procedure, abridged: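 Secreted IL-1β quantified by capture ELISA from supernatants of PMA-differentiated THP-1 cells (30K per well). Sequence: LPS 25 ng/mL priming 2 h, compound 1 h, nigericin 2 h; dose-responses normalized between high (LPS plus 5 μM nigericin) and low (LPS alone) controls.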
(An ELISA detects its analyte on a solid surface through an enzyme-linked reagent.)

Setting [1] is: THP-1, IL-1β secretion, PMA-differentiated THP-1 cells, LPS then nigericin stimulation, ELISA read at 450 nm, read-out: Activity.
Where [2] appears, read: THP-1, Table 4, IL-1β secretion, LPS/nigericin-stimulated THP-1 cells, read-out: IC50.

Read-outs that look alike come from different tables or passages of the source.

With `O=C(CN1CC2(CC2)c2cc(Br)ccc2C1=O)Nc1ccc2[nH]nnc2c1` [Example 167, N-(1H-benzotriazol-5-yl)-2-(6-bromo-1-oxospiro[3H-isoquinoline-4,1′-cyclopropane]-2-yl)acetamide], the IC50 is, setting by setting: under setting [1], < 10 µM; under setting [2], 0.146 µM.

For `O=C(CN1CC2(CC2)c2cc(Br)ccc2C1=O)Nc1cc(C2CC2)n[nH]1` [Example 168, 2-(6-bromo-1-oxospiro[3H-isoquinoline-4,1′-cyclopropane]-2-yl)-N-(3-cyclopropyl-1H-pyrazol-5-yl)acetamide], the IC50 under setting [1] was < 10 µM and the IC50 under setting [2] turned out to be 2.83 µM.

In the case of `O=C(CN1CC2(CC2)c2cc(Br)ccc2C1=O)Nc1ccc2nc[nH]c2c1` [Example 169, N-(3H-benzimidazol-5-yl)-2-(6-bromo-1-oxospiro[3H-isoquinoline-4,1′-cyclopropane]-2-yl)acetamide], the IC50 was < 10 µM under setting [1] and 0.605 µM under setting [2].

As to `O=C(CN1CC2(CC2)c2cc(Br)ccc2C1=O)Nc1ccc2[nH]ncc2c1` [Example 170, 2-(6-bromo-1-oxospiro[3H-isoquinoline-4,1′-cyclopropane]-2-yl)-N-(1H-indazol-5-yl)acetamide], the IC50 is, setting by setting: under setting [1], < 10 µM; under setting [2], 1.12 µM.

In the case of `Cc1cncc(NC(=O)CN2CC3(CC3)c3cc(Br)ccc3C2=O)n1` [Example 171, 2-(6-bromo-1-oxospiro[3H-isoquinoline-4,1′-cyclopropane]-2-yl)-N-(6-methylpyrazin-2-yl)acetamide], the IC50 reads like this: under setting [1], 10 to 15 µM; under setting [2], 11 µM.

With `O=C(CN1CC2(CC2)c2cc(Br)ccc2C1=O)Nc1ccc(-c2nnn[nH]2)cc1` [Example 172, 2-(6-bromo-1-oxospiro[3H-isoquinoline-4,1′-cyclopropane]-2-yl)-N-[4-(1H-tetrazol-5-yl)phenyl]acetamide], the IC50 is > 15 µM under setting [1] and 23.7 µM under setting [2].

Regarding `O=C(CN1CC2(CC2)c2cc(Br)ccc2C1=O)Nc1ccc2ocnc2c1` [Example 173, N-(1,3-benzoxazol-5-yl)-2-(6-bromo-1-oxospiro[3H-isoquinoline-4,1′-cyclopropane]-2-yl)acetamide], the IC50 is, setting by setting: under setting [1], < 10 µM; under setting [2], 2.3 µM.

With `CC(C)(O)CC1(NC(=O)CN2CC3(CC3)c3cc(Br)ccc3C2=O)CC1` [Example 174, 2-(6-bromo-1-oxospiro[3H-isoquinoline-4,1′-cyclopropane]-2-yl)-N-[1-(2-hydroxy-2-methylpropyl)cyclopropyl]acetamide], the IC50 is 10 to 15 µM under setting [1] and 10.9 µM under setting [2].

For `O=C(CN1CC2(CC2)c2cc(Br)ccc2C1=O)Nc1ccn2nccc2n1` [Example 175, 2-(6-bromo-1-oxospiro[3H-isoquinoline-4,1′-cyclopropane]-2-yl)-N-pyrazolo[1,5-a]pyrimidin-5-ylacetamide], the IC50 under setting [1] was < 10 µM and the IC50 under setting [2] was determined as 0.672 µM.

With `O=C(CN1CC2(CC2)c2cc(Br)ccc2C1=O)Nc1cc2cccnc2cn1` [Example 176, 2-(6-bromo-1-oxospiro[3H-isoquinoline-4,1′-cyclopropane]-2-yl)-N-(1,7-naphthyridin-6-yl)acetamide], the IC50 under setting [1] is < 10 µM and the IC50 under setting [2] stood at 2.95 µM.

Take `N#Cc1ccc2c(c1)C1(CC1)CN(CC(=O)Nc1ncc(F)cn1)C2=O` [Example 177, 2-(6-cyano-1-oxospiro[3H-isoquinoline-4,1′-cyclopropane]-2-yl)-N-(5-fluoropyrimidin-2-yl)acetamide]: the IC50 under setting [1] is < 10 µM and the IC50 under setting [2] is 4.41 µM.

Consider `CC1(C)CN(CC(=O)Nc2ncc(F)cn2)C(=O)c2ccc(Br)cc21` [Example 178, 2-(6-bromo-4,4-dimethyl-1-oxo-3H-isoquinolin-2-yl)-N-(5-fluoropyrimidin-2-yl)acetamide], for which the IC50 under setting [1] is < 10 µM and the IC50 under setting [2] stood at 1.05 µM.

As to `O=C(CN1CC2(CC2)c2cc(Br)ccc2C1=O)Nc1cn2ccnc2cn1` [Example 179, 2-(6-bromo-1-oxospiro[3H-isoquinoline-4,1′-cyclopropane]-2-yl)-N-imidazo[1,2-a]pyrazin-6-ylacetamide], the IC50 was < 10 µM under setting [1] and 2.24 µM under setting [2].

Turning to `O=C(CN1CC2(CC2)c2cc(Br)ccc2C1=O)Nc1ccc2nccn2n1` [Example 180, 2-(6-bromo-1-oxospiro[3H-isoquinoline-4,1′-cyclopropane]-2-yl)-N-imidazo[1,2-b]pyridazin-6-ylacetamide], the IC50 reads like this: under setting [1], < 10 µM; under setting [2], 0.508 µM.

With `O=C(CN1CC2(CC2)c2cc(Br)ccc2C1=O)Nc1nc2ccccn2n1` [Example 181], the IC50 is, setting by setting: under setting [1], < 10 µM; under setting [2], 0.143 µM.

As to `Cc1ccnc(NC(=O)CN2CC3(CC3)c3cc(Br)ccc3C2=O)c1` [Example 182, 2-(6-bromo-1-oxospiro[3H-isoquinoline-4,1′-cyclopropane]-2-yl)-N-(4-methylpyridin-2-yl)acetamide], the IC50 under setting [1] is < 10 µM and the IC50 under setting [2] was 3.14 µM.

Consider `CS(=O)(=O)c1ccc(NC(=O)CN2CC3(CC3)c3cc(Br)ccc3C2=O)c(Cl)c1` [Example 183, 2-(6-bromo-1-oxospiro[3H-isoquinoline-4,1′-cyclopropane]-2-yl)-N-(2-chloro-4-methylsulfonylphenyl)acetamide], for which the IC50 is < 10 µM under setting [1] and 8.08 µM under setting [2].

On to `Cc1nc(NC(=O)CN2CC3(CC3)c3cc(Br)ccc3C2=O)ncc1F` [Example 184, 2-(6-bromo-1-oxospiro[3H-isoquinoline-4,1′-cyclopropane]-2-yl)-N-(5-fluoro-4-methylpyrimidin-2-yl)acetamide], for which the IC50 runs as follows: under setting [1], < 10 µM; under setting [2], 0.651 µM.

`COc1cnc(NC(=O)CN2CC3(CC3)c3cc(Br)ccc3C2=O)nc1` [Example 185, 2-(6-bromo-1-oxospiro[3H-isoquinoline-4,1′-cyclopropane]-2-yl)-N-(5-methoxypyrimidin-2-yl)acetamide]: the IC50 is, setting by setting: under setting [1], < 10 µM; under setting [2], 0.469 µM.

For the molecule `O=C(CN1CC2(CC2)c2cc(Br)ccc2C1=O)Nc1ncc(-n2cccn2)cc1F` [Example 186, 2-(6-bromo-1-oxospiro[3H-isoquinoline-4,1′-cyclopropane]-2-yl)-N-(3-fluoro-5-pyrazol-1-ylpyridin-2-yl)acetamide], the IC50 by setting is: under setting [1], < 10 µM; under setting [2], 5.23 µM.

As to `Cc1nc(-c2ccnc(NC(=O)CN3CC4(CC4)c4cc(Br)ccc4C3=O)n2)cs1` [Example 187, 2-(6-bromo-1-oxospiro[3H-isoquinoline-4,1′-cyclopropane]-2-yl)-N-[4-(2-methyl-1,3-thiazol-4-yl)pyrimidin-2-yl]acetamide], the IC50 is < 10 µM under setting [1] and 0.871 µM under setting [2].

For the molecule `O=C(CN1CC2(CC2)c2cc(Br)ccc2C1=O)Nc1nc2n(n1)CCC2` [Example 188, 2-(6-bromo-1-oxospiro[3H-isoquinoline-4,1′-cyclopropane]-2-yl)-N-(6,7-dihydro-5H-pyrrolo[1,2-b][1,2,4]triazol-2-yl)acetamide], the IC50 by setting is: under setting [1], < 10 µM; under setting [2], 1.29 µM.

Turning to `Cn1ncc2nc(NC(=O)CN3CC4(CC4)c4cc(Br)ccc4C3=O)ccc21` [Example 189, 2-(6-bromo-1-oxospiro[3H-isoquinoline-4,1′-cyclopropane]-2-yl)-N-(1-methylpyrazolo[4,3-b]pyridin-5-yl)acetamide], the IC50 runs as follows: under setting [1], < 10 µM; under setting [2], 3.76 µM.

As for `Cn1cc2nc(NC(=O)CN3CC4(CC4)c4cc(Br)ccc4C3=O)ccc2n1` [Example 190, 2-(6-bromo-1-oxospiro[3H-isoquinoline-4,1′-cyclopropane]-2-yl)-N-(2-methylpyrazolo[4,3-b]pyridin-5-yl)acetamide], the IC50 is, setting by setting: under setting [1], < 10 µM; under setting [2], 0.691 µM.

For the molecule `O=C(CN1CC2(CC2)c2cc(Br)ccc2C1=O)Nc1ccc2ccncc2c1` [Example 191, 2-(6-bromo-1-oxospiro[3H-isoquinoline-4,1′-cyclopropane]-2-yl)-N-isoquinolin-7-ylacetamide], the IC50 by setting is: under setting [1], < 10 µM; under setting [2], 1.15 µM.

Consider `O=C(CN1CC2(CC2)c2cc(Br)ccc2C1=O)Nc1ncncn1` [Example 192, 2-(6-bromo-1-oxospiro[3H-isoquinoline-4,1′-cyclopropane]-2-yl)-N-(1,3,5-triazin-2-yl)acetamide], for which the IC50 is < 10 µM under setting [1] and 0.309 µM under setting [2].

With `O=C(CN1CC2(CC2)c2cc(Br)ccc2C1=O)Nc1ncc(C(F)(F)F)cn1` [Example 193, 2-(6-bromo-1-oxospiro[3H-isoquinoline-4,1′-cyclopropane]-2-yl)-N-[5-(trifluoromethyl)pyrimidin-2-yl]acetamide], the IC50 under setting [1] was < 10 µM and the IC50 under setting [2] is 0.24 µM.

With `O=C(CN1CC2(CC2)c2cc(Br)ccc2C1=O)Nc1ncc(C2CC2)cn1` [Example 194, 2-(6-bromo-1-oxospiro[3H-isoquinoline-4,1′-cyclopropane]-2-yl)-N-(5-cyclopropylpyrimidin-2-yl)acetamide], the IC50 reads like this: under setting [1], < 10 µM; under setting [2], 0.39 µM.

Take `O=C(CN1CC2(CC2)c2cc(Br)ccc2C1=O)Nc1ccc(C(F)F)cn1` [Example 195, 2-(6-bromo-1-oxospiro[3H-isoquinoline-4,1′-cyclopropane]-2-yl)-N-[5-(difluoromethyl)pyridin-2-yl]acetamide]: the IC50 runs as follows: under setting [1], < 10 µM; under setting [2], 1.01 µM.

Regarding `O=C(CN1CC2(CC2)c2cc(Br)ccc2C1=O)Nc1ccc(Cl)cn1` [Example 196, 2-(6-bromo-1-oxospiro[3H-isoquinoline-4,1′-cyclopropane]-2-yl)-N-(5-chloropyridin-2-yl)acetamide], the IC50 was < 10 µM under setting [1] and 0.516 µM under setting [2].

(Values after patent publication US20230416205A1, “COMPOUNDS, COMPOSITIONS, AND METHODS” (Denali Therapeutics Inc, priority 2020, published 2023).)
